The text below walks through data of patent EP2970215B1, “PYRROLIDINE DERIVATIVES, PHARMACEUTICAL COMPOSITIONS CONTAINING THEM, AND THEIR USE IN THERAPY” (AbbVie Deutschland GmbH & Co. KG, priority 2013, dated 2014).

The term Ki denotes a measure of affinity in units of concentration, obtained from inhibition or displacement.

The target of the test is T1, human GlyT1c transporter (Homo sapiens, UniProt P48067).
T1 construct: expressed in transfected cells; host or cells: CHO cells (recombinant; line hGlyT1c_5_CHO is named for the uptake assay)
T1 sequence (P48067 1-706): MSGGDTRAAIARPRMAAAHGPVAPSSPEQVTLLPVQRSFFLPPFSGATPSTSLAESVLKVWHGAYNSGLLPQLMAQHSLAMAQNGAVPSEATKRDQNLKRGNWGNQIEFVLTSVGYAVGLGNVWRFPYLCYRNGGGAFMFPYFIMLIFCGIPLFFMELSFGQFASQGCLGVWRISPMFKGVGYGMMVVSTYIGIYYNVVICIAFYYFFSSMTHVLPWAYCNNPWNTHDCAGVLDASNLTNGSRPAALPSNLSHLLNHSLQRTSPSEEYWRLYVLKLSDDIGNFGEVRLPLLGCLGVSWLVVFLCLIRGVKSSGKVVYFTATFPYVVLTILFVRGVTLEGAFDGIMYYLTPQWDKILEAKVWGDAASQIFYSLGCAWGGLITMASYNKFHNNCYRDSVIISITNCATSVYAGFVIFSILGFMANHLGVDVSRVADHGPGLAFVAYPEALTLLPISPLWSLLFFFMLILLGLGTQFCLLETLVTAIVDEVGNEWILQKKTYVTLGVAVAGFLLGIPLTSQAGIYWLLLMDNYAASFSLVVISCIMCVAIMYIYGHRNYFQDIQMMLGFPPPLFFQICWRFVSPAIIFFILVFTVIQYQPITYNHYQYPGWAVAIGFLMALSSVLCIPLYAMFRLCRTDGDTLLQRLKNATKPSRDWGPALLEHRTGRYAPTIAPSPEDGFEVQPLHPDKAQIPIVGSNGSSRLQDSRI
The test is described as follows: Radioligand binding assay using recombinant CHO cell membranes expressing human GlyT1. The source says:
2. Radioligand binding assays using recombinant CHO cell membranes expressing human GlyT1: […]

[1] abbreviates: radioligand binding, recombinant CHO cell membranes expressing human GlyT1c.
The mark [2] stands for this setting: radioligand binding to human GlyT1c transporter-expressing membranes.

As for `Cn1cnc(S(=O)(=O)N2C[C@@H](Nc3cccc(OCC(F)(F)F)c3)[C@H](C3CCCCO3)C2)c1` (relative stereo) [Example 816, Trans-1-[(1-methyl-1H-imidazol-4-yl)sulfonyl]-4-(tetrahydro-2H-pyran-2-yl)-N-[3-(2,2,2-trifluoroethoxy)phenyl]pyrrolidin-3-amine], the Ki under setting [1] was no more than 10 nM.

In the case of `Cn1cnc(S(=O)(=O)N2C[C@@H](C(=O)NCC3CC3)[C@H](c3ccc(F)cc3)C2)c1` [Example 586, (3S,4R)-N-(cyclopropylmethyl)-4-(4-fluorophenyl)-1-[(1-methyl-1H-imidazol-4-yl)sulfonyl]pyrrolidine-3-carboxamide], the Ki under setting [2] is no more than 1000 nM.

With `Cn1cnc(S(=O)(=O)N2CC(Nc3ccc(F)c(C(F)F)c3)C(c3ccc(F)cc3)C2)c1` (stereo not drawn) [Example 310, N-[3-(difluoromethyl)-4-fluorophenyl]-4-(4-fluorophenyl)-1-[(1-methyl-1H-imidazol-4-yl)sulfonyl]pyrrolidin-3-amine], under setting [2], the Ki was no more than 100 nM. As for `Cn1cnc(S(=O)(=O)N2C[C@@H](Nc3cc(Cl)cc(C#N)c3)[C@H](c3ccccc3)C2)c1` (relative stereo) [Example 80, 3-chloro-5-({trans-1-[(1-methyl-1H-imidazol-4-yl)sulfonyl]-4-phenylpyrrolidin-3-yl}amino)benzonitrile], under setting [2], the Ki was no more than 1000 nM. Same read-out and setting: under `Cn1cnc(S(=O)(=O)N2C[C@H](Nc3cc(OCC(F)(F)F)ccn3)[C@@H](c3ccc(F)cc3)C2)c1` [Example 807, N-{(3R,4S)-4-(4-fluorophenyl)-1-[(1-methyl-1H-imidazol-4-yl)sulfonyl]pyrrolidin-3-yl}-4-(2,2,2-trifluoroethoxy)pyridin-2-amine] stands no more than 10 nM. The same measure, in the same setting: under `Cn1cnc(S(=O)(=O)N2C[C@@H](Nc3cccc(C(F)(F)F)n3)[C@H](c3ccccc3)C2)c1` (relative stereo) [Example 210, N-{trans-1-[(1-methyl-1H-imidazol-4-yl)sulfonyl]-4-phenylpyrrolidin-3-yl}-6-(trifluoromethyl)pyridin-2-amine] stands no more than 10000 nM.

Regarding `Cn1cnc(S(=O)(=O)N2C[C@H](NCc3sc(Cl)nc3Cl)[C@@H](c3ccccc3)C2)c1` [Example 435, (3R,4S)-N-[(2,4-dichloro-1,3-thiazol-5-yl)methyl]-1-[(1-methyl-1H-imidazol-4-yl)sulfonyl]-4-phenylpyrrolidin-3-amine], the Ki under setting [2] is no more than 100 nM. Regarding `Cn1cnc(S(=O)(=O)N2C[C@@H](NC(=O)c3cccc(Cl)c3Cl)[C@H](c3ccccc3)C2)c1` (relative stereo) [Example 31, 2,3-dichloro-N-{trans-1-[(1-methyl-1H-imidazol-4-yl)sulfonyl]-4-phenylpyrrolidin-3-yl}benzamide], the Ki under setting [2] was no more than 1000 nM. `CC(C)COc1cc(N[C@H]2CN(S(=O)(=O)c3cn(C)cn3)C[C@@H]2c2ccc(F)cc2)ncn1` [Example 718, N-{(3R,4S)-4-(4-fluorophenyl)-1-[(1-methyl-1H-imidazol-4-yl)sulfonyl]pyrrolidin-3-yl}-6-(2-methylpropoxy)pyrimidin-4-amine]: the Ki under setting [2] was no more than 100 nM. The same measure, in the same setting: in the case of `C=CCO[C@@H]1CN(S(=O)(=O)c2cn(C)cn2)C[C@H]1Nc1cccc(Cl)c1` (relative stereo) [Example 402, Trans-N-(3-chlorophenyl)-1-[(1-methyl-1H-imidazol-4-yl)sulfonyl]-4-(prop-2-en-1-yloxy)pyrrolidin-3-amine] it was no more than 10000 nM; in that of `Cn1cnc(S(=O)(=O)N2C[C@@H](Nc3ccc(C#N)c(F)c3)[C@H](c3ccc(F)cc3)C2)c1` (relative stereo) [Example 342, 2-fluoro-4-({trans-4-(4-fluorophenyl)-1-[(1-methyl-1H-imidazol-4-yl)sulfonyl]pyrrolidin-3-yl}amino)benzonitrile], no more than 10000 nM; in that of `Cc1ccc2sc(CN[C@H]3CN(S(=O)(=O)c4cn(C)cn4)C[C@@H]3c3ccccc3)cc2c1` [Example 437, (3R,4S)-N-[(5-methyl-1-benzothiophen-2-yl)methyl]-1-[(1-methyl-1H-imidazol-4-yl)sulfonyl]-4-phenylpyrrolidin-3-amine], no more than 100 nM. With `Cn1cnc(S(=O)(=O)N2C[C@H](NCCC3CCCC3)[C@@H](c3ccccc3)C2)c1` [Example 427, (3R,4S)-N-(2-cyclopentylethyl)-1-[(1-methyl-1H-imidazol-4-yl)sulfonyl]-4-phenylpyrrolidin-3-amine], the Ki under setting [2] was no more than 100 nM. Regarding `Cn1cnc(S(=O)(=O)N2C[C@H](Nc3ccc4sccc4c3)[C@@H](c3ccccc3)C2)c1` [Example 654, (3R,4S)-N-(1-benzothiophen-5-yl)-1-[(1-methyl-1H-imidazol-4-yl)sulfonyl]-4-phenylpyrrolidin-3-amine], the Ki under setting [2] is no more than 1000 nM. On the same count and under the same terms, under `Cn1cnc(S(=O)(=O)N2C[C@@H](Nc3cccc(F)c3)[C@H](c3ncccc3F)C2)c1` (relative stereo) [Example 805, Trans-N-(3-fluorophenyl)-4-(3-fluoropyridin-2-yl)-1-[(1-methyl-1H-imidazol-4-yl)sulfonyl]pyrrolidin-3-amine] stands no more than 1000 nM. `Cn1cnc(S(=O)(=O)N2C[C@@H](NC(=O)c3ccccc3C(F)(F)F)[C@H](c3ccccc3)C2)c1` (relative stereo) [Example 35, N-{trans-1-[(1-methyl-1H-imidazol-4-yl)sulfonyl]-4-phenylpyrrolidin-3-yl}-2-(trifluoromethyl)benzamide]: the Ki under setting [2] was no more than 10000 nM. For `Cn1cnc(S(=O)(=O)N2C[C@@H](Nc3ccc(C#N)cc3F)[C@H](c3ccccc3)C2)c1` (relative stereo) [Example 53, 3-fluoro-4-({trans-1-[(1-methyl-1H-imidazol-4-yl)sulfonyl]-4-phenylpyrrolidin-3-yl}amino)benzonitrile], under setting [2], the Ki is no more than 10000 nM.

As for `Cn1cnc(S(=O)(=O)N2C[C@@H](Nc3ccc(Cl)cc3)[C@H](c3ccccc3F)C2)c1` (relative stereo) [Example 202, trans-N-(4-chlorophenyl)-4-(2-fluorophenyl)-1-[(1-methyl-1H-imidazol-4-yl)sulfonyl]pyrrolidin-3-amine], under setting [2], the Ki was no more than 1000 nM. As for `Cn1cnc(S(=O)(=O)N2C[C@@H]([C@@H]3CCCOC3)[C@H](Nc3cccc(OCc4ccccc4)c3)C2)c1` (mixture of isomers) [Example 794, Trans-N-[3-(benzyloxy)phenyl]-1-[(1-methyl-1H-imidazol-4-yl)sulfonyl]-4-[(3S)-tetrahydro-2H-pyran-3-yl]pyrrolidin-3-amine], under setting [2], the Ki was no more than 1000 nM.

Consider `Cn1cnc(S(=O)(=O)N2C[C@@H](NCc3cccc(C(F)(F)F)c3)[C@H](c3ccc(F)cc3)C2)c1` (relative stereo) [Example 266, trans-4-(4-fluorophenyl)-1-[(1-methyl-1H-imidazol-4-yl)sulfonyl]-N-[3-(trifluoromethyl)benzyl]pyrrolidin-3-amine], for which the Ki under setting [2] was no more than 1000 nM. For the molecule `CC(CN[C@H]1CN(S(=O)(=O)c2cn(C)cn2)C[C@@H]1c1ccccc1)c1ccccc1` (stereo partly drawn) [Example 465, (3R,4S)-1-[(1-methyl-1H-imidazol-4-yl)sulfonyl]-4-phenyl-N-(2-phenylpropyl)pyrrolidin-3-amine], the Ki under setting [2] was no more than 1000 nM. On to `CCCCC(CC)CN[C@H]1CN(S(=O)(=O)c2cn(C)cn2)C[C@@H]1c1ccccc1` (stereo partly drawn) [Example 433, (3R,4S)-N-(2-ethylhexyl)-1-[(1-methyl-1H-imidazol-4-yl)sulfonyl]-4-phenylpyrrolidin-3-amine], for which the Ki under setting [2] was no more than 100 nM. On the same count and under the same terms, in the case of `Cn1cnc(S(=O)(=O)N2C[C@H](NCC3(C)CCCCC3)[C@@H](c3ccccc3)C2)c1` [Example 467, (3R,4S)-N-[(1-methylcyclohexyl)methyl]-1-[(1-methyl-1H-imidazol-4-yl)sulfonyl]-4-phenylpyrrolidin-3-amine] it was no more than 1000 nM.

Consider `Cn1cnc(S(=O)(=O)N2C[C@H](NC(=O)C3CCC(C(F)(F)F)CC3)[C@@H](c3ccc(F)cc3)C2)c1` (stereo partly drawn) [Example 696, N-{(3R,4S)-4-(4-fluorophenyl)-1-[(1-methyl-1H-imidazol-4-yl)sulfonyl]pyrrolidin-3-yl}-4-(trifluoromethyl)cyclohexanecarboxamide], for which the Ki under setting [2] is no more than 10000 nM. In the case of `Cn1cnc(S(=O)(=O)N2C[C@H](NCc3c(Cl)cncc3Cl)[C@@H](c3ccccc3)C2)c1` [Example 432, (3R,4S)-N-[(3,5-dichloropyridin-4-yl)methyl]-1-[(1-methyl-1H-imidazol-4-yl)sulfonyl]-4-phenylpyrrolidin-3-amine], the Ki under setting [2] was no more than 10000 nM. As for `Cn1cnc(S(=O)(=O)N2C[C@@H](CNc3ccc(C(F)(F)F)cc3Cl)[C@H](c3ccc(F)cc3)C2)c1` (relative stereo) [Example 332, 2-Chloro-N-({trans-4-(4-fluorophenyl)-1-[(1-methyl-1H-imidazol-4-yl)sulfonyl]pyrrolidin-3-yl}methyl)-4-(trifluoromethyl)aniline], the Ki under setting [2] was no more than 100 nM. In the case of “(3R,4S)-4-(1,3-dioxan-2-yl)-N,N-dihexyl-1-[(1-methyl-1H-imidazol-4-yl)sulfonyl]pyrrolidin-3-amine [Example 909]”, the Ki under setting [1] was no more than 1000 nM.
